“And” between values parts separate entries of the source, which are not always exact repeats. Identical values can stand only once. One block for each molecule: values may come before it.
Key:
Type in all cases: biochemical, bovine
[1] = biological target: T1, PK40 (Bos taurus, UniProt P46196); assay: 32P kinase assay of purified PK40 with dephosphorylated NF-M as second substrate
T1 construct: from tissue; host or cells: bovine brain
Protocol: (§1) An alternative method for assaying the phosphorylating activity of the kinases was by ^32P assays. Radioactive assays in the same buffer system as for immunoassays contained 5 μg of HTP-purified native NF-triplet as substrate (3μg of substrate proteins other than NFs) and 150-250 cpm/pmole gamma-^32P-ATP. Incubation'times were 15 minutes at 37° C. for activities up to about 1 pmole/min/assay, since the assay responses were linear within these time intervals. Assays were stopped by cooling on ice, addition of 20 μl 25 mM EDTA and immediate transfer of the mixture onto glass filters (Whatman GF/A) wetted with 10% TCA/2% sodium pyrophosphate (PPA). The glass filters were washed twice for 1 hour and once for at least 3 hours in 10% TCA/2% PPA and finally in ethanol and were air-dried. Radioactivity was assessed by scintillation counting (Beckman LS 230) with 5 ml “Liquiscint” (National Diagnostics) for 20 minutes. Assays were routinely carried out in triplicate except for some duplicate assays in a few explicitly mentioned cases; a control assay lacking NFs was subtracted from the mean value.
(§2) The ATP dependence and inhibition of the activities of PK40 and PK36 were determined at 2 mM Mg^2+ with soluble dephosphorylated NF-M as second substrate to avoid uncertainties arising from the aggregation state of NF-triplet in suspension. The optima were at 0.5-1 mM ATP for both kinases. Apparent Km values for ATP of both kinases were estimated from Woolf-Hanes plots (Dixon and Webb, 1979) for a range of ATP concentrations sufficiently below the onset of inhibition. […] The apparent Km of PK36 was approximately 50 μM.

[2] = tested on: PK36; assay: 32P kinase assay of purified PK36 with dephosphorylated NF-M as second substrate
Protocol: as §1, §2

[3] = tested on: KSP-phosphorylating kinases; assay: Immuno-dotblot assay (SMI-31/SMI-34 epitope reconstitution on dephosphorylated NF-triplet) with crude 35-45% ammonium sulfate fraction; conditions: crude enzyme
Protocol: The preferred method for the immunoassay for detecting KSP-phosphorylating kinases is as follows. […] After incubation at 37° C. for 18 hours, assays were diluted to 100 μl with 10 mM PBS, pH 7.2, and aliquots of 50 μl were spotted on nitrocellulose (0.22 μm, Schleicher and Schull). […] Blots were incubated with SMI mAbs for at least 2 hours. The blots were then washed five times. […] All incubations and washes were at room temperature. Incubations were sealed in plastic bags with 50 μl of solution/cm membrane. The foregoing procedure involved parameters that were optimized as follows. […] This activity was NF-specific, since the corresponding control immunoassay which lacked dephosphorylated native NF-triplet was almost negative for this fraction. […] The assays were performed with 0.5 mM Mg^2+ (unless indicated otherwise). […] Immuno-dotblot-assays were conducted to determine the optimal Mg^2+ and ATP concentrations using the SMI-31 and SMI-34 antibodies. […] Control assays were without NFs using 0.4 micrograms crude enzyme.

[4] = 2 mM Mg2+, 5 mM ATP, % of control (2 mM Mg2+, 1 mM ATP)
[5] = ATP in relatively small excess over Mg2+
[6] = 5 mM Mg2+ over 1 mM ATP or 5 mM over 5 mM ATP
[7] = 5 mM Mg2+, 1 mM ATP, % of control
[8] = 5 mM Mg2+, 5 mM ATP, % of control

T1 sequence (P46196 2-360 limits assumed): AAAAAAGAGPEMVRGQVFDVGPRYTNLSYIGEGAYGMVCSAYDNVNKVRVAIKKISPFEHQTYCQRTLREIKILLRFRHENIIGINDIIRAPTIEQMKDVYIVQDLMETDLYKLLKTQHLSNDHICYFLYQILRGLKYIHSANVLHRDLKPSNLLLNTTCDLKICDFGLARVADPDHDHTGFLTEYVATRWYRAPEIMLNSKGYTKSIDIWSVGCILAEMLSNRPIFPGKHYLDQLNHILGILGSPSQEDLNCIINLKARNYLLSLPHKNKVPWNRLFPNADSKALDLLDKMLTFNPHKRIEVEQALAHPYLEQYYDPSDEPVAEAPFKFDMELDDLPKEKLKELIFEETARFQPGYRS

Structure (SMILES): Nc1ncnc2c1ncn2[C@@H]1O[C@H](COP(=O)(O)OP(=O)(O)OP(=O)(O)O)[C@@H](O)[C@H]1O [ATP]
ATP optimum of PK40 activity ([1]; 2 mM Mg2+): 0.5 to 1 mM
relative activity [%] of PK40 [1, 4]: 7% and 7.2 ± 6.9%
Km ([1]; 2 mM Mg2+, Woolf-Hanes plots, mean ±S.D. of three determinations, read-out: apparent Km for ATP of PK40): 93 ± 12 µM
inhibition of PK40 by excess ATP [1, 5]: strongly inhibited
ATP optimum of PK36 activity ([2]; 2 mM Mg2+): 0.5 to 1 mM
relative activity [%] of PK36 [2, 4]: 14% and 14 ± 0.5%
Km ([2]; 2 mM Mg2+, Woolf-Hanes plots, read-out: apparent Km for ATP of PK36): ~50 µM
inhibition of PK36 by excess ATP [2, 5]: strongly inhibited
effect on kinase activity ([3]; ATP 5 mM): inhibited the kinase activity

Structure (SMILES): Nc1nc2c(ncn2[C@@H]2O[C@H](COP(=O)(O)OP(=O)(O)OP(=O)(O)O)[C@@H](O)[C@H]2O)c(=O)[nH]1 [GTP]
ability to substitute for ATP [3]: could not substitute for ATP

inhibition of PK40 with excess Mg2+ [1, 6]: little or no inhibition
relative activity [%] of PK40 [1, 7]: 107 ± 3.5%
relative activity [%] of PK40 [1, 8]: 78 ± 7.1%
inhibition of PK36 with excess Mg2+ [2, 6]: significantly reduced
relative activity [%] of PK36 [2, 7]: 40 ± 0.2%
relative activity [%] of PK36 [2, 8]: 38 ± 2.2%
Structure (SMILES): [Mg+2] [Mg^2, magnesium]

Structure (SMILES): [Mn+2] [Mn^2+]
effectiveness relative to Mg2+ [3]: about twice as effective as Mg^2+

Structure (SMILES): [Cl-].[Na+] [NaCl, sodium chloride]
relative activity [%] of PK40 ([1]; NaCl 150 mM, % of control): 27 ± 1.8%
relative activity [%] of PK36 ([2]; NaCl 150 mM, % of control): 40 ± 0.8%
concentration that diminished the assay response ([3]; attributed to ionic strength): greater than 20 mM

— patent publication US20020025942A1, “NOVEL TAU/NEUROFILAMENT PROTEIN KINASES” (priority 1991, published 2002)
